In patent US8012484B2, “Method of treating ischemia reperfusion injury by inhibiting NKT cell activity” (University of Virginia Patent Foundation, priority 2007, dated 2011):

Experiments:
[1] = test system: invariant NKT cells in a mixed splenocyte culture; experiment: α-Gal-Cer stimulated IFN-γ production by iNKT cells in mixed splenocyte culture; format: cell-based, mice; conditions: for effect of antagonist on ATL146e inhibition of α-Gal-Cer mediated IFN-γ production: 1 μM α-Gal-Cer
Procedure: (§1) FIGS. 5A-E. Inhibition by ATL146e of IFN-γ production by activated NKT cells. A) Purified NKT cells (200,000 per well) were incubated on immobilized anti-CD3 mAb in the presence of vehicle or 100 nM ATL146e. Supernatants were collected after 24 hours and IFN-γ concentrations were measured by ELISA. Data are shown as the mean±SEM from three independent experiments performed in triplicate. *p<0.01 vs. vehicle control as assessed by unpaired t-test B) Bulk splenocytes (300,000 cells per well) were incubated with 1 U/mL ADA and 1 nM-1 μM α-galactosylceramide in the presence of 100 nM ATL146e or vehicle. C) Bulk splenocytes (300,000 cells per well) were incubated with 1 U/mL ADA and 1 μM α-galactosylceramide in the presence or absence of varying concentrations of ATL146e±100 nM ZM241385 or vehicle. D) Bulk splenocytes (300,000 cells per well) were incubated with 1 U/mL ADA and 1 μM α-galactosylceramide in the presence or absence of 1 nM ATL146e±1 μM 8-SPT or vehicle. E) Purified CD4^+NK1.1^+ T cells (150,000 cells per well) were incubated with lymphocyte and NK cell-deficient splenocytes (300,000 cells per well), 1 U/mL ADA and 1 μM α-galactosylceramide in the presence or absence of 100 nM ATL146e±100 nM ZM241385. NK1.1-expressing cells were depleted from RAG 1 KO splenocytes via FACSVantage SE Turbo Sorter. Supernatants were collected after 48 hours, and IFN-γ concentrations were determined by ELISA. Data shown are from a single experiment performed in triplicate, representative of three independent experiments; error bars indicate SEM. (B-E)*p<0.01 vs. vehicle control as assessed by one way ANOVA followed by Dunnetts multiple comparison test.
(§2) Cells were washed and resuspended in RPMI 1640 medium supplemented with 10% heat-inactivated fetal bovine serum and 1% antibiotic-antimycotic (Gibco, Carlsbad, Calif.). In vitro activation of NKT cells was achieved by co-culture for 48 hours with splenocytes and 1 nM-1 μM α-Gal-Cer (KRN7000; from Kumi Miyayama of Kirin Brewery Company, Tokyo) at 37° C. in 5% CO2. Alternately, NKT cells were activated by incubation for 24 hours in 96 well plates coated with 2-10 μg/mL immobilized anti-CD3 mAb (BD Biosciences) at 37° C. in 5% CO2. All in vitro T cell activation experiments were performed with the addition of 1 U/mL adenosine deaminase (ADA) (Roche, Indianapolis, Ind.) to remove endogenous adenosine produced by the cells that may partially activate the A2AR. […]
(§3) IFN-γ concentrations in cell culture supernatants or serum samples were measured by ELISA according to the manufacturer's protocol (e-Bioscience).

[2] = test system: hepatic IRI in WT C57BL/6 mice; experiment: Hepatic ischemia reperfusion injury (72 min ischemia, 24 h reperfusion): serum ALT and necrotic area; format: in vivo; conditions: 72 min hepatic ischemia
Procedure: (§4) Mice were anesthetized by intraperitoneal injection of ketamine (100 mg/kg) and xylazine (10 mg/kg). Ambient temperature was controlled in the range of 24-26° C. and mice were placed on a 37° heating pad. Core body temperature of selected mice was monitored with a TH-8 Thermalert monitoring thermometer (Physitemp) and ranged from 35-36°. After midline laparotomy, a microaneurysm clip was applied to the hepatic triad above the bifurcation to clamp the flow of the hepatic artery, portal vein, and bile duct. After superfusion of the liver with warm saline, the peritoneum was closed during 72 min of ischemia. The peritoneum was then reopened and the microaneurysm clip was removed. […]
(§5) Following liver ischemia, blood was collected via retro-orbital bleed 24 hours after the initiation of reperfusion. Serum ALT was measured with a transaminase kit according to the manufacture's protocol (Pointe Scientific, Canton, Mich.). […] The plate was placed in a spectrophotometer preheated to 37° C., and the absorbance at […] was measured every minute for 10 minutes. The slope of the linear portion of the change in absorbance over time was used to calculate IU/L of ALT.
Mice were sacrificed and livers perfused with saline via the portal vein at various times after the initiation of reperfusion. […] Necrotic area was quantified using Adobe Photoshop software.

[3] = test system: RAG 1 KO mice reconstituted with CD4+NK1.1+ NKT cells; experiment: Hepatic IRI in RAG 1 KO mice after adoptive transfer of NKT cells: serum ALT; format: in vivo
Procedure: as §4, with “removed. For select experiments, animals received an i.p. loading dose (1 μg/kg) of ATL146e or vehicle control immediately after the onset of reperfusion, and a primed Alzet osmotic minipump was implanted intraperitoneally.” for “removed.”
as §5

CD4+ NK1.1+ NKT cells = experiment: IFN-γ production by purified NKT cells activated on immobilized anti-CD3 mAb; format: cell-based, mice; conditions: Mus musculus, 100 nM, 24 hours of incubation, read-out: inhibition of TCR-stimulated IFN-γ production
Procedure: Wild-type, A2AR KO, or IFN-γ KO C57BL/6 mice were sacrificed and spleens removed. Splenocytes were passed through a 40 μm nylon cell strainer (BD Biosciences, San Jose, Calif.) and collected in phosphate buffered saline. Red blood cells were lysed and CD4^+ T lymphocytes were isolated with mouse CD4 subset column kits (R and D Systems, Minneapolis, Minn.) resulting in >92% pure CD4^+ T cells. The column-purified cells were stained for 30 minutes with FITC-conjugated anti-mouse CD4 and PE-conjugated anti-mouse NK1.1 (eBioscience, San Diego, Calif.) and sorted using a FACSVantage SE Turbo Sorter (Becton Dickinson, Franklin Lakes, N.J.) to produce cell populations of ≧99.8% pure CD4^+NK1.1^+ T lymphocytes.
as §2, with “CO2.” for “CO2. All in vitro T cell activation experiments were performed with the addition of 1 U/mL adenosine deaminase (ADA) (Roche, Indianapolis, Ind.) to remove endogenous adenosine produced by the cells that may partially activate the A2AR.”
as §3

IFN-γ = experiment: Serum/plasma IFN-γ 24 hours after reperfusion (ELISA); format: in vivo, mice; conditions: 24 hours after reperfusion injury
Procedure: (§6) Mice were anesthetized by intraperitoneal injection of ketamine (100 mg/kg) and xylazine (10 mg/kg). Ambient temperature was controlled in the range of 24-26° C. and mice were placed on a 37° heating pad. Core body temperature of selected mice was monitored with a TH-8 Thermalert monitoring thermometer (Physitemp) and ranged from 35-36°. After midline laparotomy, a microaneurysm clip was applied to the hepatic triad above the bifurcation to clamp the flow of the hepatic artery, portal vein, and bile duct. After superfusion of the liver with warm saline, the peritoneum was closed during 72 min of ischemia. The peritoneum was then reopened and the microaneurysm clip was removed. For select experiments, animals received an i.p. loading dose (1 μg/kg) of ATL146e or vehicle control immediately after the onset of reperfusion, and a primed Alzet osmotic minipump was implanted intraperitoneally. ATL146e (10 ng/kg/min) or vehicle was placed in the pumps and delivered until the experiment was terminated. The peritoneum was sutured and the surgical wound was closed with metal staples. Animals were sacrificed by cervical dislocation at various time points after the initiation of reperfusion and blood was collected via retro-orbital bleed. […]
as §3

[4] = test system: NKT cells isolated from post-ischemic mouse liver and liver-draining lymph nodes; experiment: Intracellular IFN-γ in NKT cells from post-ischemic liver after 2 hours of reperfusion (FACS); format: in vivo, mice; conditions: treatment at the initiation of reperfusion
Procedure: as §6, with “staples.” for “staples. Animals were sacrificed by cervical dislocation at various time points after the initiation of reperfusion and blood was collected via retro-orbital bleed.”
Intracellular IFN-γ was detected in liver NKT cells by FACS analysis using Fix and Perm Cell Permeabilization Reagents according to the manufacturer's protocol (Caltag Laboratories, Carlsbad, Calif.).

[5] = test system: purified CD4+ NK1.1+ NKT cells; experiment: IFN-γ release from purified NKT cells activated with α-Gal-Cer in the presence of NK cell-depleted RAG 1 KO splenocytes; format: cell-based, mice; conditions: 1 μM α-Gal-Cer
Procedure: as §1, with “E) Purified CD4^+NK1.1^+ T cells (150,000 cells per well) were incubated with lymphocyte and NK cell-deficient splenocytes (300,000 cells per well), 1 U/mL ADA and 1 μM α-galactosylceramide in the presence or absence of 100 nM ATL146e±100 nM ZM241385. NK1.1-expressing cells were depleted from RAG 1 KO splenocytes via FACSVantage SE Turbo Sorter.” left out, “Data shown are from a single experiment performed in triplicate, representative of three independent experiments; error bars indicate SEM.” left out, “test. […]” for “test.”
as §3

Cn1c(=O)c2[nH]c(-c3ccc(S(=O)(=O)O)cc3)nc2n(C)c1=O [8-SPT, 8-sulfophenyltheophylline]
effect of antagonist on ATL146e inhibition of α-Gal-Cer mediated IFN-γ production ([1]; 1 μM antagonist, 1 nM ATL146e): blocks the inhibitory effects of ATL146e

CCNC(=O)C1OC(n2cnc3c(N)nc(C#CCC4CCC(C(=O)OC)CC4)nc32)C(O)C1O (stereo not shown) [ATL146e, 4-{3-[6-Amino-9-(5-ethylcarbamoyl-3,4-dihydroxy-tetrahydro-furan-2-yl)-9H-purin-2-yl]-prop-2-ynyl}-cyclohexanecarboxylic acid methyl ester]
reduction in serum ALT levels versus vehicle treated controls ([2]; 24 hours after reperfusion): approximately 58%
necrotic area ([2]; 24 hours of reperfusion, H and E staining, vehicle 79.3±3%): 6.1±0.8%
protection from tissue damage (serum ALT) ([3]; RAG 1 KO mice, 250,000 NKT cells from A2AR KO mice transferred): abolishes the effect of agonist administration
protection from tissue damage (serum ALT) ([3]; RAG 1 KO mice, 250,000 WT NKT cells transferred): protects from tissue damage only when WT cells are transferred
inhibition of α-Gal-Cer stimulated IFN-γ production (in words) ([1]; 100 nM, 1 nM-1 μM α-Gal-Cer, mixed splenocyte culture, 48 hours): inhibited competently
EC50 ([1]; Mus musculus, NKT, stimulated by 1 μM α-Gal-Cer, mixed splenocytes, 48 hours, read-out: EC50 of inhibition of iNKT-mediated production of IFN-γ): 0.58 nM
inhibition at 0.1 µM (CD4+ NK1.1+ NKT cells): ~73%
elevation of plasma IFN-γ concentrations (IFN-γ): diminished this elevation to a similar extent
increase in intracellular IFN-γ expression of NKT cells (activation) [4]: significantly inhibits this activation
reduction of IFN-γ derived from NKT cell activation ([5]; 100 nM ATL146e, lymphocyte-deficient NK cell-depleted RAG 1 KO splenocytes as APCs): 93%

Nc1nc(NCCc2ccc(O)cc2)nc2nc(-c3ccco3)nn12 [ZM241385, 4-(2-[7-amino-2-[2-furyl][1,2,4]triazolo[2,3-a][1,3,5]triazin-5-yl-amino]ethyl)phenol]
effect of antagonist on ATL146e inhibition of α-Gal-Cer mediated IFN-γ production ([1]; 100 nM antagonist, varying concentrations of ATL146e): causes a right shift in the ATL146e dose response curve
effect of antagonist on ATL146e reduction of IFN-γ ([5]; co-treatment with 100 nM antagonist): this effect was blocked
